Data taken from patent US20020026053A1, “Novel 3-(substituted) -2- indolinones compounds and use thereof as inhibitors of protein kinase activity” (priority 1997, published 2002).

How the values were obtained:
[1] = target: T1, EGFR (Homo sapiens, UniProt P00533); experiment: Biochemical EGFR Assay; parameters: concentration or dose not given beside the values
T1 construct: endogenous in cells; host or cells: A431 cells (lysate, captured with SUMO1 anti-EGFR antibody)
Description: This assay measures the in vitro kinase activity of EGFR using ELISA.
1. Corning 96-well Elisa plates (Corning Catalog No. 25805-96).
2. SUMO1 monoclonal anti-EGFR antibody (Biochemistry Lab, SUGEN, Inc.).
3. PBS (Dulbecco's Phosphate-Buffered Saline, Gibco Catalog No. 450-1300EB).
6. A431 cell lysate (Screening Lab, SUGEN, Inc.)
9. Adenosine-5′-triphosphate (ATP, from Equine muscle, Sigma Cat. No. A-5394).
Prepare a 1.0 mM solution in dH2O. This reagent should be made up immediately prior to use and kept on ice.
Prepare a 1.0 M stock solution in dH2O.
11. ATP/MnCl2 phosphorylation mix
This reagent should be prepared immediately before use and kept on ice
12. NUNC 96-well V bottom polypropylene plates (Applied Scientific Cat. No. AS-72092).
13. Ethylenediaminetetraacetic acid (EDTA)
Prepare 200 mM working solution in dH2O. Adjust to pH 8.0 with 10 N NaOH.
14. Rabbit polyclonal anti-phosphotyrosine serum (Biochemistry Lab, SUGEN, Inc.)
15. Goat anti-rabbit IgG peroxidase conjugate (Biosource Cat. No. ALI0404)
16. ABTS (2,2′-azino-bis(3-ethylbenzthiazoline-6-sulfonic acid), Sigma Cat. No. A-1888).
Mix first two ingredients in about 900 ml dH2O, adjust pH to 4.0 with phosphoric acid. Add ABTS, cover, let sit about 0.5 hr., filter. The solution should be kept in the dark at 4° C. until ready to use.
17. Hydrogen peroxide 30% solution (Fisher Cat. No. H325)
Mix 15 ml ABTS solution and 2.0 μl H2O2. Prepare 5 minutes before use.
1. Coat Corning 96 well ELISA plates with 0.5 μg SUMO1 in 100 μl PBS per well, store overnight at 4° C.
2. Remove unbound SUMO1 from wells by inverting plate to remove liquid. Wash 1× with dH2O. Pat the plate on a paper towel to remove excess liquid.
3. Add 150 μl of Blocking Buffer to each well. Incubate for 30 min. at room temperature with shaking.
4. Wash plate 3× with deionized water, then once with TBST. Pat plate on a paper towel to remove excess liquid and bubbles.
5. Dilute lysate in PBS (7 μg lysate/100 μl PBS)
6. Add 100 μl of diluted lysate to each well. Shake at room temperature for 60 min.
7. Wash plates as described in 4, above.
8. Add 120 μl TBS to ELISA plate containing captured EGFR.
9. Dilute test compound 1:10 in TBS in 96-well polypropylene plates (ie. 10 μl compound+90 μl TBS).
10. Add 13.5 μl diluted test compound to ELISA plate.
11. Incubate for 30 minutes while shaking at room temperature.
13. After 5 minutes, stop reaction by adding 16.5 μl of 200 mM EDTA (pH 8.0) to each well, shaking continuously. After the EDTA has been added, shake for 1 min.
14. Wash 4× with deionized water, twice with TBST.
15. Add 100 μl anti-phosphotyrosine (1:3000 dilution in TBST) per well. Incubate 30-45 min. at room temperature, with shaking.
16. Wash as described in 4, above.
17. Add 100 μl Biosource Goat anti-rabbit IgG peroxidase conjugate (1:2000 dilution in TBST) to each well. Incubate 30 min. at room temperature, with shaking.
18. Wash as described in 4, above.
19. Add 100 μl of ABTS/H2O2 solution to each well.
20. Incubate 5 to 10 minutes with shaking. Remove any bubbles.
21. If necessary stop reaction with the addition of 100 μl 0.2 M HCl per well.
22. Read assay on Dynatech MR7000 ELISA reader. Test Filter: 410 nM Reference Filter: 630 nM

[2] = test system: PDGF-R; experiment: PDGF-R Assay (cellular ELISA, U1242 cells); format: cell-based; parameters: concentration or dose not given beside the values
Method in brief: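 U1242 cells seeded in 0.5% serum, serum-starved, then exposed to compound for 2 hr at 37°C before 5–10 min ligand stimulation and lysis in HNTG. Lysate captured on receptor-antibody-coated plates; phosphotyrosine detected with polyclonal anti-pTyr, goat anti-rabbit IgG and ABTS/H2O2, A410 (ref 630 nm), versus untreated cells.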

T1 sequence (P00533 25-1210): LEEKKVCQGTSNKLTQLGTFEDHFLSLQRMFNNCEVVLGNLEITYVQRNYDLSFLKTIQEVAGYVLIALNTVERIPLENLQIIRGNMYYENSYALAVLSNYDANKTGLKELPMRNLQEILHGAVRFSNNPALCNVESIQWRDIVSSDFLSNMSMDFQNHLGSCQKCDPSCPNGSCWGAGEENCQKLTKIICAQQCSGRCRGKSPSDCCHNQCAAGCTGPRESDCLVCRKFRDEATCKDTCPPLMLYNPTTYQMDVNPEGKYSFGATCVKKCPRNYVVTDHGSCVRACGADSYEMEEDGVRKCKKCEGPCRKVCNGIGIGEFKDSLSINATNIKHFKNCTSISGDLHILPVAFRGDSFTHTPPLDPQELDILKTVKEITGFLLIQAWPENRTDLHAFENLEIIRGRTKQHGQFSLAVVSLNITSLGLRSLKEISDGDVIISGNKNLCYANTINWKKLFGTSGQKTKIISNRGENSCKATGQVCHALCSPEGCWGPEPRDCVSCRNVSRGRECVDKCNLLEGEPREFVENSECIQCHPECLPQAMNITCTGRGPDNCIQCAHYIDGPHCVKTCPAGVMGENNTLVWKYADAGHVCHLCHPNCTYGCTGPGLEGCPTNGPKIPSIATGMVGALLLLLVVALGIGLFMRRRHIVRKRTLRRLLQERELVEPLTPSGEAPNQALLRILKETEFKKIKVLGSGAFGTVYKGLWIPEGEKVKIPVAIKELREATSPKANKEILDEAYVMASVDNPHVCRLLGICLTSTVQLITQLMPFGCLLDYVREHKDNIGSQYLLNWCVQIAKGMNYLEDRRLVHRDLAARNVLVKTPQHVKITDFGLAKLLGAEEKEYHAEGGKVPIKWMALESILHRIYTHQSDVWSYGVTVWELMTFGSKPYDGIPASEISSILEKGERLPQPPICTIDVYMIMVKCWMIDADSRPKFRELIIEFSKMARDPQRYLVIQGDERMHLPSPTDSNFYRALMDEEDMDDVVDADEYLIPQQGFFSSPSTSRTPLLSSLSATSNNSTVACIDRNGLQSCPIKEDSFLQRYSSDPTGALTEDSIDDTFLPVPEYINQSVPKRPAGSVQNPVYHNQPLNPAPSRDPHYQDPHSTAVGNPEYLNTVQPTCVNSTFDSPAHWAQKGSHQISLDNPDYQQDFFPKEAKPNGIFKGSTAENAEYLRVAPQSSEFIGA

SMILES | Biochem EGFR % Inhibition (P.167) [1] [%] | PDGF Kinase % Inhibition (P.119) [2] [%]
CCOC(=O)c1c(C)[nH]c(C=C2C(=O)Nc3c(Br)cc(Br)c(C)c32)c1C [10718/H02] | −22.5 | –
COc1cc(Br)c(O)c(C=C2C(=O)Nc3c(Br)cc(Br)c(C)c32)c1 [10718/H03] | 33.2 | –
Cc1c(Br)cc(Br)c2c1C(=Cc1ccc3ccccc3c1O)C(=O)N2 [10718/H04] | 13.7 | –
CCOC(=O)CCc1c(C(=O)OCC)[nH]c(C=C2C(=O)Nc3c(Br)cc(Br)c(C)c32)c1CC(=O)OCC [10718/H05] | 0.2 | –
CCOC(=O)c1cc(C=C2C(=O)Nc3c(Br)cc(Br)c(C)c32)oc1C [10718/H06] | −5.1 | –
COC(=O)c1[nH]c(C)c(C=C2C(=O)Nc3c(Br)cc(Br)c(C)c32)c1C(=O)OC [10718/H07] | −12.0 | –
Cc1c(Br)cc(Br)c2c1C(=Cc1ccc(Cl)c([N+](=O)[O-])c1)C(=O)N2 [10718/H08] | −2.5 | –
CCOc1cccc(C=C2C(=O)Nc3c(Br)cc(Br)cc32)c1O [10734/A02] | 0.0 | −3.8
O=C1Nc2c(Br)cc(Br)cc2C1=Cc1cc(Cl)cc(Cl)c1O [10734/A03] | 18.5 | 22.3
O=C1Nc2c(Br)cc(Br)cc2C1=Cc1cc(Cl)ccc1O [10734/A04] | 11.4 | 11.7
CCN(CC)c1ccc(C=C2C(=O)Nc3c(Br)cc(Br)cc32)c(O)c1 [10734/A05] | 22.6 | 2.9
O=C1Nc2c(Br)cc(Br)cc2C1=Cc1ccc([N+](=O)[O-])cc1 [10734/A06] | −6.4 | −9.9
O=C1Nc2c(Br)cc(Br)cc2C1=Cc1cc(Br)cc(Br)c1O [10734/A07] | 15.2 | 21.9
O=C1Nc2c(Br)cc(Br)cc2C1=Cc1cccc(F)c1O [10734/A08] | 6.8 | 9.1
O=C1Nc2c(Br)cc(Br)cc2C1=Cc1ccc(O)c(Br)c1 [10734/A09] | 27.3 | −9.5
CC(C)(C)c1ccc(C=C2C(=O)Nc3c(Br)cc(Br)cc32)cc1 [10734/A10] | 27.8 | 26.3
O=C1Nc2c(Br)cc(Br)cc2C1=Cc1ccc(Br)s1 [10734/A11] | 12.5 | 5.5
CCOc1cccc(C=C2C(=O)Nc3ccc(I)cc32)c1O [10734/B02] | −8.9 | −2.9
O=C1Nc2ccc(I)cc2C1=Cc1cc(Cl)cc(Cl)c1O [10734/B03] | 45.1 | 13.0
O=C1Nc2ccc(I)cc2C1=Cc1cc(Cl)ccc1O [10734/B04] | 38.7 | 14.4
CCN(CC)c1ccc(C=C2C(=O)Nc3ccc(I)cc32)c(O)c1 [10734/B05] | 17.8 | 56.3
O=C1Nc2ccc(I)cc2C1=Cc1ccc([N+](=O)[O-])cc1 [10734/B06] | 54.0 | 0.2
O=C1Nc2ccc(I)cc2C1=Cc1cc(Br)cc(Br)c1O [10734/B07] | 65.5 | 18.8
